We go through eight compounds from paper PMC6478789, “A chemical toolbox for the study of bromodomains and epigenetic signaling” (Nature Communications, 2019).

Assay in all cases: Methyl transferase scintillation proximity assay
Format in all cases: biochemical
Settings in all cases: average of two measurements; for inhibition at 10 µM: read-out: MTases Inhibition (%)

One assay deals with T1, PRMT8 (Homo sapiens, UniProt Q9NR22).
T1 construct: purchased DiscoverX BROMOscan (bromodomains); SGC in-house methyltransferase panel
How it is done: (§1) Assays measuring lysine and arginine methyl transferase activity have been described in Scheer et al.. A radioactivity-based scintillation proximity assay was used to monitor incorporation of a tritium-labeled methyl group into the biotinylated substrate of the methyl transferase. A 10-μl reaction containing ^3H-SAM and substrate at concentrations close to the apparent Km values for each enzyme was prepared. The reactions were quenched with 10 μl of 7.5 M guanidine hydrochloride; 180 μl of 20 mM Tris buffer (pH 8.0) were added; and the mixture was transferred to a 96-well FlashPlate and incubated for 1 h. The counts per minute (CPM) was measured on a TopCount plate reader. The CPM in the absence of compound or enzyme was defined as 100% activity and background (0%), respectively, for each dataset.

A further assay concerns the target T2, PRMT1 (Homo sapiens, UniProt Q99873).
T2 construct: purchased DiscoverX BROMOscan (bromodomains); SGC in-house methyltransferase panel
How it is done: as §1

For the next assay, the target named is T3, PRMT6 (Homo sapiens, UniProt Q96LA8).
T3 construct: purchased DiscoverX BROMOscan (bromodomains); SGC in-house methyltransferase panel
How it is done: as §1

A further assay concerns the target T4, SETD8 (Homo sapiens, UniProt Q9NQR1).
T4 construct: purchased DiscoverX BROMOscan (bromodomains); SGC in-house methyltransferase panel
T4 sequence (Q9NQR1 1-393): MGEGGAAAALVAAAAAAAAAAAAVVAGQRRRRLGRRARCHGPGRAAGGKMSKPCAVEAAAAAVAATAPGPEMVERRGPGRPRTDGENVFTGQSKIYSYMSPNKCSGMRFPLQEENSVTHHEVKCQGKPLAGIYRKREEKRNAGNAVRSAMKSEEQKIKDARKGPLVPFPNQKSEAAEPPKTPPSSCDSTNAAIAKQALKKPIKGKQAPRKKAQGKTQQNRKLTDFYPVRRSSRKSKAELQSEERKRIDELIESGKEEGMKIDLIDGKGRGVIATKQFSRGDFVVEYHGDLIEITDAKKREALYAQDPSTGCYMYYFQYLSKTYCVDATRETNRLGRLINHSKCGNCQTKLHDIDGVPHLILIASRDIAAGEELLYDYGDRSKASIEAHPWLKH
How it is done:
as §1

Another assay deals with T5, NSD2 (Homo sapiens, UniProt O96028).
T5 construct: purchased DiscoverX BROMOscan (bromodomains); SGC in-house methyltransferase panel
T5 sequence (O96028 1-1365): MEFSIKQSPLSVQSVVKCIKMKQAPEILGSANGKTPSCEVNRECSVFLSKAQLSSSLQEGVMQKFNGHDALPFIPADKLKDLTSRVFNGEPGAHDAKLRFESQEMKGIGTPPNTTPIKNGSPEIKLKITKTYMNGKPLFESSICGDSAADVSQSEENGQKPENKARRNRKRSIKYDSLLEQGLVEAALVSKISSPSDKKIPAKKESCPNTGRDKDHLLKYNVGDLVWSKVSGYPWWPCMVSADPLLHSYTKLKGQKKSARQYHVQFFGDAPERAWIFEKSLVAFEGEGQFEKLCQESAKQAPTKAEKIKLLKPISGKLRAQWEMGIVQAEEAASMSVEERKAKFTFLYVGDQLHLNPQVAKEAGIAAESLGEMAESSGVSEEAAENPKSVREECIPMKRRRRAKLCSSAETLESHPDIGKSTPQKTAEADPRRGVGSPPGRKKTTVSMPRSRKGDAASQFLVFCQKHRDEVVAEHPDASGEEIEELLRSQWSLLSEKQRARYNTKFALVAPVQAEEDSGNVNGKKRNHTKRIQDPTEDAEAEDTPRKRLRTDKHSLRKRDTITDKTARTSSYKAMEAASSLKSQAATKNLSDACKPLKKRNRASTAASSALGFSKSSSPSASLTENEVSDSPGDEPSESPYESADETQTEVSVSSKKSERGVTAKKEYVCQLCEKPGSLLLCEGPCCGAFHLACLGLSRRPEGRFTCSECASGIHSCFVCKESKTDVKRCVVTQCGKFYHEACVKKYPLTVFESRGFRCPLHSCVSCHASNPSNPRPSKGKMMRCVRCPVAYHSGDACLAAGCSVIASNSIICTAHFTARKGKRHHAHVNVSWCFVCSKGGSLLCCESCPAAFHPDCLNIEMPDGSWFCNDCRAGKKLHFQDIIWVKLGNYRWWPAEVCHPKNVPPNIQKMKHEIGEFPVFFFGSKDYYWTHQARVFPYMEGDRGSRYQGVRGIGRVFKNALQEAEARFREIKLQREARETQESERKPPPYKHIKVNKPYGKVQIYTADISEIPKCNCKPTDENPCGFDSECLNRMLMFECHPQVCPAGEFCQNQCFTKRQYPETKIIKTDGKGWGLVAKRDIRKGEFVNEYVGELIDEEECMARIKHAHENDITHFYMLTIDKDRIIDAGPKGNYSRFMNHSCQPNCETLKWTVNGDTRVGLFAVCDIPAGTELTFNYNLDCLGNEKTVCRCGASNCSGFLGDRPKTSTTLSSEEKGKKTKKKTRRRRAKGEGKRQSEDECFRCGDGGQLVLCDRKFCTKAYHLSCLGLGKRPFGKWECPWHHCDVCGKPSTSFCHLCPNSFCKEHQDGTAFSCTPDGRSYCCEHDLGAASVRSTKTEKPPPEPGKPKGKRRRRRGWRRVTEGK
How it is done: as §1

The target of a further assay is T6, SETD2 (Homo sapiens, UniProt Q9BYW2).
T6 construct: purchased DiscoverX BROMOscan (bromodomains); SGC in-house methyltransferase panel
T6 sequence (Q9BYW2 whole entry): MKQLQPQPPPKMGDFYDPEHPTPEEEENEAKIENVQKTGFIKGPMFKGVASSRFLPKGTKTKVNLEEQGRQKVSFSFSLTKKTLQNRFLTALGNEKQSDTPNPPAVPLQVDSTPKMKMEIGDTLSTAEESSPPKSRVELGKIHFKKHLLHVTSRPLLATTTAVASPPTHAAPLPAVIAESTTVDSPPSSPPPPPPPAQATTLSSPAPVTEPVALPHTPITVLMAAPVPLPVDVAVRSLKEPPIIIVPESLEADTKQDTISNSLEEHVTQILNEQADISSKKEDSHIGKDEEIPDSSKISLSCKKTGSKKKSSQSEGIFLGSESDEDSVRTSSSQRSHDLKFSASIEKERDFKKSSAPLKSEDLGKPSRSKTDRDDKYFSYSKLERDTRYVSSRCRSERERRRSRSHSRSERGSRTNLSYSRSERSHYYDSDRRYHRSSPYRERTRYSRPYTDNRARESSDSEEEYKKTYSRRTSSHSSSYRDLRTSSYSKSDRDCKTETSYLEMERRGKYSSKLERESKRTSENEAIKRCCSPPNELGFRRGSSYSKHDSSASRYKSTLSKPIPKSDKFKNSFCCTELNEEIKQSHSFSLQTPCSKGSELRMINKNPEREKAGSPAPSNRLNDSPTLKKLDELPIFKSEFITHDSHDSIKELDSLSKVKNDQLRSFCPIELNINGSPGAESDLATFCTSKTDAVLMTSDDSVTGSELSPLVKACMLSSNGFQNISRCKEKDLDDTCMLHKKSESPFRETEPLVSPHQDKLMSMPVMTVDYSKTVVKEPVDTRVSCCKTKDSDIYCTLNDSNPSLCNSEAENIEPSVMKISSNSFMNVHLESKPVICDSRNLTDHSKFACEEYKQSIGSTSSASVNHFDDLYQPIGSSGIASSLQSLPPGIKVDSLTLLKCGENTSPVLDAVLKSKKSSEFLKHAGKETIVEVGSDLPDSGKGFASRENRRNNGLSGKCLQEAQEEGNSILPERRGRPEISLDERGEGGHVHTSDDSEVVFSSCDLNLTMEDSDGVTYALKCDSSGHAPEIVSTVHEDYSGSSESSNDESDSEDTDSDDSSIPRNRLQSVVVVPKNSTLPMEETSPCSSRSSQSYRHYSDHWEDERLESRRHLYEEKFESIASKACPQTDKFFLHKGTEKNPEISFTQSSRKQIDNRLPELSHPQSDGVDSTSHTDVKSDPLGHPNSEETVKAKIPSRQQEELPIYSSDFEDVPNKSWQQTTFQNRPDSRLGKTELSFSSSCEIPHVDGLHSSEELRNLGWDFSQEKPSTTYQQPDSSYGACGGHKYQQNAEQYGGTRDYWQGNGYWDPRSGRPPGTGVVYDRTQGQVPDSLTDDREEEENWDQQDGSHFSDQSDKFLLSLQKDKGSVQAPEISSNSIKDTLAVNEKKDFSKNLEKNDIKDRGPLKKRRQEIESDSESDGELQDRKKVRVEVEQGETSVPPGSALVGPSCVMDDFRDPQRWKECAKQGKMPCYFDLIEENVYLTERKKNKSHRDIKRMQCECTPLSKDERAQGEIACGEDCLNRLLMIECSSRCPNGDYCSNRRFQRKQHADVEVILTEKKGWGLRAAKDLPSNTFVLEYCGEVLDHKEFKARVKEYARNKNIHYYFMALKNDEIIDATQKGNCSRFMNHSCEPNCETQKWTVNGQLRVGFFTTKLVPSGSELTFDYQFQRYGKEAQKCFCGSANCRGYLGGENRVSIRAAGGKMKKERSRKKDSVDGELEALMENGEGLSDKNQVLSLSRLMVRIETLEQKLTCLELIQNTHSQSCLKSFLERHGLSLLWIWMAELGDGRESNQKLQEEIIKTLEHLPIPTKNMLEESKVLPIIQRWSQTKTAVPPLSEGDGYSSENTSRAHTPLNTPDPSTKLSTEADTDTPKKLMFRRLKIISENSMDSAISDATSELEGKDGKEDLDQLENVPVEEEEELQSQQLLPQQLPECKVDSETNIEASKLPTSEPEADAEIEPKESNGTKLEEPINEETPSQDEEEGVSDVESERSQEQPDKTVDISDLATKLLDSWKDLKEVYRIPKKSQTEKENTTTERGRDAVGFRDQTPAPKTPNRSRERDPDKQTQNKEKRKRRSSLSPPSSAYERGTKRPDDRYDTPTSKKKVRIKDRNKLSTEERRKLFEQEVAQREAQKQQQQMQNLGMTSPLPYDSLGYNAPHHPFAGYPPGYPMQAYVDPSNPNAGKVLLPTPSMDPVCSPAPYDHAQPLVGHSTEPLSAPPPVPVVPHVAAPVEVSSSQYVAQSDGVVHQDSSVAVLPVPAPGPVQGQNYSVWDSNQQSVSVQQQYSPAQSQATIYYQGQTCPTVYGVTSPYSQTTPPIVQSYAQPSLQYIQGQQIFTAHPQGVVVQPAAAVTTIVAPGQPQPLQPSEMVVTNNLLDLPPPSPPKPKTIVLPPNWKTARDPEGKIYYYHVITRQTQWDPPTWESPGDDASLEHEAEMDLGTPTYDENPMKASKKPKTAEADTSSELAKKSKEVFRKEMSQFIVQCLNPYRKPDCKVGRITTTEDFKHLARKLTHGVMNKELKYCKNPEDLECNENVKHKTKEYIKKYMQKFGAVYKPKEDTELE
How it is done:
as §1

The next assay addresses T7, PRC2-EZH2 (Homo sapiens, UniProt Q15910).
T7 construct: purchased DiscoverX BROMOscan (bromodomains); SGC in-house methyltransferase panel
How it is done:
as §1

For the next assay, the target named is T8, PRMT3 (Homo sapiens, UniProt O60678).
T8 construct: purchased DiscoverX BROMOscan (bromodomains); SGC in-house methyltransferase panel
T8 sequence (O60678 whole entry): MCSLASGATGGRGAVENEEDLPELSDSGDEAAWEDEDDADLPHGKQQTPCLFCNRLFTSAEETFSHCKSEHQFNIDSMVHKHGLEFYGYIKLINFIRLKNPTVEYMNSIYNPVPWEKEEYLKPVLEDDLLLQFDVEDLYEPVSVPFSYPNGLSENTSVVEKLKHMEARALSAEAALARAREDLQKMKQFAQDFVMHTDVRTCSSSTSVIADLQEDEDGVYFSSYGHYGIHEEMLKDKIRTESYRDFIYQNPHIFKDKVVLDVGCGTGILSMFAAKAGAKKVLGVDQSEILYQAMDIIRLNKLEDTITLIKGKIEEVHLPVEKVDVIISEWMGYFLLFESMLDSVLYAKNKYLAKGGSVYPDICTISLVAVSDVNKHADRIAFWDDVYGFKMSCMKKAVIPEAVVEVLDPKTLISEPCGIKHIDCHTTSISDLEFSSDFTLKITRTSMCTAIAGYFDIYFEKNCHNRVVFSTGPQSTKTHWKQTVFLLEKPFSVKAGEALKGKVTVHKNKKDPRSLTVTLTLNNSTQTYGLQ
How it is done: as §1

For a further assay, the target named is T9, SMYD3 (Homo sapiens, UniProt Q9H7B4).
T9 construct: purchased DiscoverX BROMOscan (bromodomains); SGC in-house methyltransferase panel
T9 sequence (Q9H7B4 1-428): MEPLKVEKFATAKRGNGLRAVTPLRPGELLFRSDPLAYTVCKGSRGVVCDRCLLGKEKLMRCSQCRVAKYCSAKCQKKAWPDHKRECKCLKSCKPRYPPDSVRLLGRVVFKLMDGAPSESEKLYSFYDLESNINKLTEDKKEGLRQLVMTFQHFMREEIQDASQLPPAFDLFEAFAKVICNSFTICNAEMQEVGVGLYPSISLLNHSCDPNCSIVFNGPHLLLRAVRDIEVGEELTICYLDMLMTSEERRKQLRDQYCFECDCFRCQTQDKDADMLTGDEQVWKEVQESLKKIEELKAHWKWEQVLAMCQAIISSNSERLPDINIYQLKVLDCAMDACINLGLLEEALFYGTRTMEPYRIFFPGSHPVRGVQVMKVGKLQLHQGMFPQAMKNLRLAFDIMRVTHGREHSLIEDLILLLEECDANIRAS
As for the experimental part:
as §1

The next assay concerns the target T10, PRMT5 (Homo sapiens, UniProt O14744).
T10 construct: purchased DiscoverX BROMOscan (bromodomains); SGC in-house methyltransferase panel
How it is done: as §1

T7 sequence (Q15910 whole entry): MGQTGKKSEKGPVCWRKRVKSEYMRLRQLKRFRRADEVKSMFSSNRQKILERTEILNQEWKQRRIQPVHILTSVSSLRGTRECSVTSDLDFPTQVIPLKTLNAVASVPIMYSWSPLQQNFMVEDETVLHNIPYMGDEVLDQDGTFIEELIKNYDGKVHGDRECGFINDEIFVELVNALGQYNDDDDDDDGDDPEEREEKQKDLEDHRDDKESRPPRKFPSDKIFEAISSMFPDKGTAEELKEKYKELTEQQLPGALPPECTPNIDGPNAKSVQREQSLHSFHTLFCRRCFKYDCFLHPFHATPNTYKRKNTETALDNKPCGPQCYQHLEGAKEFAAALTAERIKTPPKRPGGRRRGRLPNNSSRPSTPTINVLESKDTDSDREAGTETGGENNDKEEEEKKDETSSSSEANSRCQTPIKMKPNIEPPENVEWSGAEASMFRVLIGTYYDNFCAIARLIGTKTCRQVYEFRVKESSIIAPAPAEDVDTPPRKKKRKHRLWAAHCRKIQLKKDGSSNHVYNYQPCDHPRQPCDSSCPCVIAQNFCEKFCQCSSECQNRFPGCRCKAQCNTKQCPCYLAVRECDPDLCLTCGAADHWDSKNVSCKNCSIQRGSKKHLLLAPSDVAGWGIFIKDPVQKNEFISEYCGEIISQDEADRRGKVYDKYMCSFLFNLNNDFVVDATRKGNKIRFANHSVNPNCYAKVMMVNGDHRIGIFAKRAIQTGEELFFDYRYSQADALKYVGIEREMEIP
T7 sequence (O75530 whole entry partner): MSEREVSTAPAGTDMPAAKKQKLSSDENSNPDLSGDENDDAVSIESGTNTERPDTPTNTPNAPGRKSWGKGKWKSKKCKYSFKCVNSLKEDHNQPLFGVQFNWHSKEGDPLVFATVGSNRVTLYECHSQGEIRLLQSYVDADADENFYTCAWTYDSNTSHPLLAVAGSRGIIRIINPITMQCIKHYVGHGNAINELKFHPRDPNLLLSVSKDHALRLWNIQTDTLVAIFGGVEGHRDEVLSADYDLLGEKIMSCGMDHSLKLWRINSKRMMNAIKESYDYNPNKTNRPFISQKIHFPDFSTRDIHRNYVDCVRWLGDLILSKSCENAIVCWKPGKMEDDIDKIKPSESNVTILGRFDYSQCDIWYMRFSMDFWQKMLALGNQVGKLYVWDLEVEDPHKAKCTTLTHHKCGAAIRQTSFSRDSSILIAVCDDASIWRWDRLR
T7 sequence (Q15022 whole entry partner): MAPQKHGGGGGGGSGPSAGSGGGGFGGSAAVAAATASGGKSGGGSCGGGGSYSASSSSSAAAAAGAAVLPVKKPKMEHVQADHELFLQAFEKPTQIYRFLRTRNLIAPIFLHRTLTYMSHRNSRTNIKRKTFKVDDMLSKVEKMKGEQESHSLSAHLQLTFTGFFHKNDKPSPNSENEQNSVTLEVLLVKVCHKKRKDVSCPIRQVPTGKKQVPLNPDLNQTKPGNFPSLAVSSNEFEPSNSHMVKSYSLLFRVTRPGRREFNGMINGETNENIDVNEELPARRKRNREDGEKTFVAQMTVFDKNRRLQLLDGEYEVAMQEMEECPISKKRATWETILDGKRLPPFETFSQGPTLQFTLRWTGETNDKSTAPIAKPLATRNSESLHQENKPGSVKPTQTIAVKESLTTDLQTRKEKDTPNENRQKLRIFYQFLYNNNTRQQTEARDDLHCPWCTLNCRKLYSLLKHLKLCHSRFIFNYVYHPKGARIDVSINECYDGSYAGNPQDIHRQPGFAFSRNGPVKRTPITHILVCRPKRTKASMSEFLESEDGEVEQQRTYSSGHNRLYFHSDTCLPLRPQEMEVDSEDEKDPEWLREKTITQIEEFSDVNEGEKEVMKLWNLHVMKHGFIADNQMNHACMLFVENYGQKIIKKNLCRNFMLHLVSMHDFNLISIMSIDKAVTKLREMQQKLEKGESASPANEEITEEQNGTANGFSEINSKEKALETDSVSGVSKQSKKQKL

Consider `Cc1nnc2c3ccccc3c(N[C@@H](C)[C@H](c3ccccc3)N(C)C)nn12` [L-Moses], for which the inhibition at 10 µM on PRMT8 is 5%; at PRMT1, -2%; on PRMT6, 5%; on SETD8, -8%; at NSD2 it was 2%; at SETD2, 11%. The inhibition at 10 µM is -4% on PRC2-EZH2, 0% on PRMT3, 10% on SMYD3 and -3% on PRMT5.

With `CN(C)CCCOc1ccc(-c2cc(NCCCn3cccn3)nc(S(C)(=O)=O)n2)cc1` [TP-238], the inhibition at 10 µM at PRMT8 is 3%; at PRMT1, 0%; on PRMT6, 6%; at SETD8, -6%; on NSD2, 3%; at SETD2, 19%. Moreover, the inhibition at 10 µM on PRC2-EZH2 is 3%; at PRMT3 it was 5%; on SMYD3 it was 7%; on PRMT5, -12%.

Regarding `Cc1c(NC(=O)c2cc(C(N)=O)nc3cc(F)ccc23)c(C(F)(F)F)nn1Cc1ccc(C(C)(C)C)cc1` [BAY-588], the inhibition at 10 µM is 3% at PRMT8; 0% at PRMT1; 4% at PRMT6; -3% at SETD8; 2% at NSD2; 0% at SETD2. Also, the inhibition at 10 µM was determined as 3% on PRC2-EZH2, 5% at PRMT3, 7% on SMYD3 and 4% on PRMT5.

Turning to `Cc1c(NC(=O)c2cc(C(N)=O)nc3cc(F)ccc23)c(C(F)(F)F)nn1Cc1ccc(C#N)cc1` [BAY-876], the inhibition at 10 µM at PRMT8 is 9%; on PRMT1, 2%; at PRMT6, -3%; on SETD8 it was 0%; on NSD2, 0%; on SETD2, -4%. Further, the inhibition at 10 µM on PRC2-EZH2 is 5%; at PRMT3, 1%; at SMYD3, 3%; at PRMT5, -1%.

For the compound `COc1ccccc1C(=O)Nc1cc2c(cc1N1CCNC[C@H]1C)n(C)c(=O)n2C` [GSK6853], the “MTases Inhibition (%)” value is on record as 3% at PRMT8 (10µM); -7% on PRMT1 (10µM); 5% on PRMT6 (10µM); -6% on SETD8 (10µM); 13% at NSD2 (10µM); 1% on SETD2 (10µM). The “MTases Inhibition (%)” value is reported as 0% on PRC2-EZH2 (10µM), 1% on PRMT3 (10µM), 9% on SMYD3 (10µM) and 3% on PRMT5 (10µM).

Turning to `CO[C@H]1CNC[C@@H](OCC2CCC(F)(F)CC2)[C@@H]1Nc1ncc(-c2cncc(C)c2)c2cc(C)c(=O)[nH]c12` [GSK8814], the inhibition at 10 µM at PRMT8 was 5%; at PRMT1 it was 3%; on PRMT6, 0%; at SETD8 it was -7%; at NSD2 it was 24%; at SETD2, 7%. The inhibition at 10 µM on PRC2-EZH2 was 2%; at PRMT3, 3%; at SMYD3, 8%; at PRMT5, -2%.

Consider `COc1cc(Cl)c(C(=O)N[C@@H](CN[C@H]2CC[C@@H](N)CC2)Cc2ccc(C#N)cc2)cc1-c1ccc(CN[C@H](C)c2ccc(C)cc2)o1` [BAY-850], for which the inhibition at 10 µM at PRMT8 was 4%; on PRMT1, 15%; at PRMT6, 13%; on SETD8, 2%; on NSD2, -1%; on SETD2 it was 7%. Also, the inhibition at 10 µM on PRC2-EZH2 was determined as 3%; on PRMT3, 3%; on SMYD3, 6%; on PRMT5, 4%.

For the compound `CN1C[C@H](Nc2cnn(C)c(=O)c2Br)C[C@H](c2ccccc2)C1` [GSK4027], the inhibition at 10 µM at PRMT8 is 15%; on PRMT1 it was 4%; at PRMT6, 6%; at SETD8, 10%; on NSD2, 15%; at SETD2 it was -1%. Moreover, the inhibition at 10 µM on PRC2-EZH2 is -5%; on PRMT3 it was 2%; at SMYD3, 1%; at PRMT5, 8%.
